Consider 5 compounds from ChEMBL document CHEMBL2203152, “Systematic in vivo screening of a series of 1-propyl-4-arylpiperidines against dopaminergic and serotonergic properties in rat brain: a scaffold-jumping approach” (J Med Chem, 2012).

Experiment [1] relates to Rattus norvegicus. Nature of the experiment: Reduction in spontaneous locomotor activity in Sprague-Dawley rat at 33 umol/kg, sc measured after 15 to 60 mins relative to saline-treated control. The format is functional. Set-up: scale not given: the % may be the effect or the level left.
Experiment [2] relates to Rattus norvegicus. In words: Decrease in 5-HIAA level in Sprague-Dawley rat striatum at 33 umol/kg, sc by HPLC analysis relative to saline-treated control. It is filed as functional. Set-up: scale not given: the % may be the effect or the level left.
The test system of experiment [3] is Rattus norvegicus. Nature of the experiment: Increase in DOPAC level in Sprague-Dawley rat striatum at 33 umol/kg, sc by HPLC analysis relative to saline-treated control. The format is functional.
Experiment [4] deals with Rattus norvegicus. Nature of the experiment: Increase in DOPAC level in sc dosed Sprague-Dawley rat striatum by HPLC analysis. The format is functional.
Experiment [5] deals with T1, Amine oxidase [flavin-containing] A (Rattus norvegicus, UniProt P21396).
T1 sequence (P21396 whole entry): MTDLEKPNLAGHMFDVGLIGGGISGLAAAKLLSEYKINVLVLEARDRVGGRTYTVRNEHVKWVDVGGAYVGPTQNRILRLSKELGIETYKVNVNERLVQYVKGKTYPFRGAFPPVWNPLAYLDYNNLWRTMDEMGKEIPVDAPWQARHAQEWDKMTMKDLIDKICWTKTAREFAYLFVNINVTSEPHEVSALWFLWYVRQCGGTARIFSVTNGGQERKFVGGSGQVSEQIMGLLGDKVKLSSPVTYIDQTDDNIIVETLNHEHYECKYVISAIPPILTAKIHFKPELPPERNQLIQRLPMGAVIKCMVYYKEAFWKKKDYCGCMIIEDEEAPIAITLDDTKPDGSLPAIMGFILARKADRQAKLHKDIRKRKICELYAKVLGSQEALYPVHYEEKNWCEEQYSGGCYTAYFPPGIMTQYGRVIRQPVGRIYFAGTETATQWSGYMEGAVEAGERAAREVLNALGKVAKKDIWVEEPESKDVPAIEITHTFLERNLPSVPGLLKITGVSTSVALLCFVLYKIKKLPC
Nature of the experiment: Displacement of [3H]Ro 41-1049 from MAO-A in rat cerebral cortex by competition binding assay. The format is tissue-based. Particulars: for Ki: read-out: Ki(app).

The species named for a further experiment is Homo sapiens. In words: Selectivity ratio of Ki(app) for human low affinity Dopamine D2S receptor to Ki(app) for human high affinity Dopamine D2S receptor.
For experiment [6], the target named is Sodium-dependent serotonin transporter (Homo sapiens, UniProt P31645). Nature of the experiment: Displacement of [3H]imipramine from human SERT expressed in CHO cells by competition binding assay. The format is cell-based. The settings on record: read-out: Ki(app). (In general: Loss of bound radioactivity is the signal in a displacement assay; it reports binding, not function.)
Chain of Sodium-dependent serotonin transporter (P31645 whole entry): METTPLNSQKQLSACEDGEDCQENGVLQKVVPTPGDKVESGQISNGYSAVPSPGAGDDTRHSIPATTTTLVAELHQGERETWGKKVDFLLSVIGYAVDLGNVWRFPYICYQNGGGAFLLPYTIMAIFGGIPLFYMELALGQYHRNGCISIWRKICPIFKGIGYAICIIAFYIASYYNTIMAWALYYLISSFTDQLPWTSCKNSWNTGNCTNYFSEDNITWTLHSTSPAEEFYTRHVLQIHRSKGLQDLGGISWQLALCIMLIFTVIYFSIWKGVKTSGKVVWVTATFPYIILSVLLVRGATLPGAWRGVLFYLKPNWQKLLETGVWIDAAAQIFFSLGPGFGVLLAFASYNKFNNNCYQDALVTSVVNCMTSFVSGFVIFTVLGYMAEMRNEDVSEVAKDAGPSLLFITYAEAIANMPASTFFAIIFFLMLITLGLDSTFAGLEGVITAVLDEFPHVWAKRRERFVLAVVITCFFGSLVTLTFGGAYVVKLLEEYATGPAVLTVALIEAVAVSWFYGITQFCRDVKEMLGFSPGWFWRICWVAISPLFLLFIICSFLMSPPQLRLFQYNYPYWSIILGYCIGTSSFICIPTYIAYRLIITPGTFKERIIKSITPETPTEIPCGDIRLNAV

The target of experiment [7] is T2, D(2) dopamine receptor (Homo sapiens, UniProt P14416). Nature of the experiment: Displacement of [3H]7-OH-DPAT from human high affinity Dopamine D2S receptor by competition binding assay.
T2 sequence (P14416 whole entry): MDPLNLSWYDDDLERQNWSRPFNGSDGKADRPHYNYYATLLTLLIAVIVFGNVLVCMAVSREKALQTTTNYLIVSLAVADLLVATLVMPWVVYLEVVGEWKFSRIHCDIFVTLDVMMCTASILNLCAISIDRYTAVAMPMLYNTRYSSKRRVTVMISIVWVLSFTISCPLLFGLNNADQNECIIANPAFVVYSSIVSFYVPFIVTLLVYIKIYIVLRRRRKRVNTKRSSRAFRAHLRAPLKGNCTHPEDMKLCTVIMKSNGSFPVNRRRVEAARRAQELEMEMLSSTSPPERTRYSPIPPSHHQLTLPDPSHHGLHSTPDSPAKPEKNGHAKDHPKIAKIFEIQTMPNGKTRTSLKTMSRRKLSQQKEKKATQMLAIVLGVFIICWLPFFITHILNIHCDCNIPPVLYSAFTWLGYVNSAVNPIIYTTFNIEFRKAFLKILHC
Experiment [8] has as its target T2, D(2) dopamine receptor. In words: Displacement of [3H]methylspiperone from human low affinity Dopamine D2S receptor by competition binding assay.
For experiment [9], the target named is T3, 5-hydroxytryptamine receptor 1A (Homo sapiens) (UniProt P08908).
T3 sequence (whole entry): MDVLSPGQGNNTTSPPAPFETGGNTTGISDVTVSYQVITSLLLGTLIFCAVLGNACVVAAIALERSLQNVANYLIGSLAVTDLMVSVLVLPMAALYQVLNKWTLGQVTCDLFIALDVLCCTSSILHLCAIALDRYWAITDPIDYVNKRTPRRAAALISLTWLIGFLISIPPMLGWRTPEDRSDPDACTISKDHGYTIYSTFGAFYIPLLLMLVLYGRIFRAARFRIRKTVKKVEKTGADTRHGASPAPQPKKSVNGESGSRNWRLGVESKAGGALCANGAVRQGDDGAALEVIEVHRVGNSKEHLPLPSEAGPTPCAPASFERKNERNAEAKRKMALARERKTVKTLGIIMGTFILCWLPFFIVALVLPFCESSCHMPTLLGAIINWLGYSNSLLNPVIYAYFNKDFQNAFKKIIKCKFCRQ
In words: Displacement of [3H]8- OH-DPAT from human 5-HT1A at 1 uM by CEREP assay.

For experiment [10], the target named is Sodium-dependent dopamine transporter (Homo sapiens) (UniProt Q01959). In words: Displacement of [3H]BTCP from human DAT at 1 uM by CEREP assay.
Chain of Sodium-dependent dopamine transporter (Homo sapiens) (Q01959 whole entry): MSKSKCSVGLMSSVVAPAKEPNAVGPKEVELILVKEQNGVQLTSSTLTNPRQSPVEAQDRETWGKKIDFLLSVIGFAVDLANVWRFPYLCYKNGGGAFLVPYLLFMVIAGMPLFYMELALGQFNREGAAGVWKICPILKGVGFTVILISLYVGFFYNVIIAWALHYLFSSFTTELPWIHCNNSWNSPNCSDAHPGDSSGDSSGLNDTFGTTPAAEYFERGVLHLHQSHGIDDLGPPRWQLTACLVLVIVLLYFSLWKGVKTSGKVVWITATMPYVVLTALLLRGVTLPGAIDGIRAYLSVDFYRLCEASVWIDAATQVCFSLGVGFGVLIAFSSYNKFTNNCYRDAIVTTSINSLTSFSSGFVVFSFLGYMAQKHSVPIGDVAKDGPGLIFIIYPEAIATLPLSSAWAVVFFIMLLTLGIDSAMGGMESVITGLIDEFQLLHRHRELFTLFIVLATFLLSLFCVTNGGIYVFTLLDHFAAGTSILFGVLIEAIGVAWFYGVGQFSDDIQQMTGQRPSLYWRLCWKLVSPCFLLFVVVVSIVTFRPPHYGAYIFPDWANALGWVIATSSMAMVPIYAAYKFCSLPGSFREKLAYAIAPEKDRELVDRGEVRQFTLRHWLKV
Experiment [11] addresses T4, D(4) dopamine receptor (Homo sapiens) (UniProt P21917).
T4 sequence (whole entry): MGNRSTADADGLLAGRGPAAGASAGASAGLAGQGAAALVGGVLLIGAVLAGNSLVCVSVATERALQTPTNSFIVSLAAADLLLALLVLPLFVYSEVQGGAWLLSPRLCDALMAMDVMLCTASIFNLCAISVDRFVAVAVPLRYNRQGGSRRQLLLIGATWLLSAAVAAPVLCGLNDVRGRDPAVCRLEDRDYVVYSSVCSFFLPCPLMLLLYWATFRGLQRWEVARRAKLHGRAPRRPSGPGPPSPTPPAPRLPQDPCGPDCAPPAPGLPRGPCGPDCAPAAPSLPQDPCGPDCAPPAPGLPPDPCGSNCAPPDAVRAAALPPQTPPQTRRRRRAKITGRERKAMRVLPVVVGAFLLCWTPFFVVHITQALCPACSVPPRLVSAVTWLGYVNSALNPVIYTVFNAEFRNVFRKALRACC
Nature of the experiment: Displacement of [3H]methylspiperone from human dopamine D4 receptor at 1 uM by CEREP assay.

Experiment [12] concerns the target T5, D(3) dopamine receptor (Homo sapiens, UniProt P35462). Nature of the experiment: Displacement of [3H]7-OH-DPAT from human dopamine D3 receptor at 1 uM by CEREP assay.
Experiment [13] has as its system Rattus norvegicus. In words: Decrease in 5-HIAA level in Sprague-Dawley rat striatum at 2.4 umol/kg, sc by HPLC analysis relative to saline-treated control. The format is functional. Set-up: scale not given: the % may be the effect or the level left.
Experiment [14] has as its system Rattus norvegicus. In words: Increase in DOPAC level in Sprague-Dawley rat striatum at 2.4 umol/kg, sc by HPLC analysis relative to saline-treated control. It is filed as functional.
For experiment [15], the system named is Rattus norvegicus. Nature of the experiment: Reduction in spontaneous locomotor activity in Sprague-Dawley rat at 2.4 umol/kg, sc measured after 15 to 60 mins relative to saline-treated control. The format is functional. Set-up: scale not given: the % may be the effect or the level left.
Experiment [16] concerns Rattus norvegicus. Nature of the experiment: Reduction in spontaneous locomotor activity in Sprague-Dawley rat at 100 umol/kg, sc measured after 15 to 60 mins relative to saline-treated control. It is filed as functional. Set-up: scale not given: the % may be the effect or the level left.
Experiment [17] relates to Rattus norvegicus. In words: Decrease in 5-HIAA level in Sprague-Dawley rat striatum at 100 umol/kg, sc by HPLC analysis relative to saline-treated control. Set-up: scale not given: the % may be the effect or the level left. It is filed as functional.
Experiment [18] has as its system Rattus norvegicus. In words: Increase in DOPAC level in Sprague-Dawley rat striatum at 100 umol/kg, sc by HPLC analysis relative to saline-treated control. The format is functional.
The target of experiment [19] is 5-hydroxytryptamine receptor 2A (Homo sapiens, UniProt P28223). Nature of the experiment: Displacement of [3H]ketanserin from human 5-HT2A by CEREP assay. Particulars: read-out: Ki(app).
Chain of 5-hydroxytryptamine receptor 2A (P28223 whole entry): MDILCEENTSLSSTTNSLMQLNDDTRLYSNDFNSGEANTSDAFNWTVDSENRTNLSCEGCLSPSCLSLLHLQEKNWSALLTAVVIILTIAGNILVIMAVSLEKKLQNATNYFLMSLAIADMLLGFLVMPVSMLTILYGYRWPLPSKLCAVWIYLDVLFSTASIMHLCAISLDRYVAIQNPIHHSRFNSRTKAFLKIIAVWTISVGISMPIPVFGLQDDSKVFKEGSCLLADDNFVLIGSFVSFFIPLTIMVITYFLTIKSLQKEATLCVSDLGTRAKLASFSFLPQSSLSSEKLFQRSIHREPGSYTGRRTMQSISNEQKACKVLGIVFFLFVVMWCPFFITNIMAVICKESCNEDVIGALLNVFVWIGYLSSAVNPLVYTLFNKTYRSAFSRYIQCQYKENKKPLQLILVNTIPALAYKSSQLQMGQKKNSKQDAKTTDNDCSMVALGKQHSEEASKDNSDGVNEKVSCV
Experiment [20] has as its target T6, 5-hydroxytryptamine receptor 1A (Homo sapiens, UniProt P08908).
T6 sequence (P08908 whole entry): T3 sequence (whole entry)
In words: Displacement of [3H]8- OH-DPAT from human 5-HT1A by CEREP assay. Particulars: read-out: Ki(app).

The test system of experiment [21] is Rattus norvegicus. Nature of the experiment: Inhibition of MK-801-induced hyperlocomotion in sc dosed Sprague-Dawley rat sc measured after 15 to 60 mins relative to saline-treated control. The format is functional.
Experiment [22] deals with Rattus norvegicus. In words: Inhibition of d-amphetamine-induced hyperlocomotion in sc dosed Sprague-Dawley rat sc measured after 15 to 60 mins relative to saline-treated control. It is filed as functional.
Experiment [23] has as its target T5, D(3) dopamine receptor. Nature of the experiment: Displacement of [3H]7-OH-DPAT from human dopamine D3 receptor by CEREP assay. Particulars: read-out: Ki(app).
The target of experiment [24] is 5-hydroxytryptamine receptor 6 (Homo sapiens, UniProt P50406). Nature of the experiment: Displacement of [3H]LSD from human 5-HT6 receptor.
Chain of 5-hydroxytryptamine receptor 6 (P50406 whole entry): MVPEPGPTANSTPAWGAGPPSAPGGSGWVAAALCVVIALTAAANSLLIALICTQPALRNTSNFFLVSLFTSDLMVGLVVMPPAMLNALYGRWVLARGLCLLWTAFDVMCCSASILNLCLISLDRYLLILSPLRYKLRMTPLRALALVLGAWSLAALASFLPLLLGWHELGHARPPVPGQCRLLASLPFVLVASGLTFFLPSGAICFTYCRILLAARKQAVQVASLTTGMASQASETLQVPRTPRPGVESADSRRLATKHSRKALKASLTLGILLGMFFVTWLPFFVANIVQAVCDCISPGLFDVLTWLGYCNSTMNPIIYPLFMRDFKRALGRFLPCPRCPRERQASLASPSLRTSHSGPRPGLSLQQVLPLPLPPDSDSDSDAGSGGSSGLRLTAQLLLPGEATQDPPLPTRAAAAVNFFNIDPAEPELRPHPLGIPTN
For experiment [25], the target named is T7, Alpha-2A adrenergic receptor (Homo sapiens, UniProt P08913).
T7 sequence (P08913 whole entry): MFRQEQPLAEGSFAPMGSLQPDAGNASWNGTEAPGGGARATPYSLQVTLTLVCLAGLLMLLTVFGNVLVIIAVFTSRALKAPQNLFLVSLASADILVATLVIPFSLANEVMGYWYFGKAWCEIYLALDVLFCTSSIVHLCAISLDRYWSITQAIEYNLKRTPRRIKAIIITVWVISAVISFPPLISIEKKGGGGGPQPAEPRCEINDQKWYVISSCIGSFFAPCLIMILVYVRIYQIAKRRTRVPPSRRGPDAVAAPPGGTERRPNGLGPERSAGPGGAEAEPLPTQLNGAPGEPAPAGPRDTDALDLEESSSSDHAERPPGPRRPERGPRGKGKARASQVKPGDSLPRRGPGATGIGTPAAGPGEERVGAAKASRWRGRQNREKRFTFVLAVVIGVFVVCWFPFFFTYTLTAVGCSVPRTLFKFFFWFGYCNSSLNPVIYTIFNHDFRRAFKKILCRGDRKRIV
In words: Displacement of [3H]UK 14.304 from human adrenergic alpha2A receptor. Particulars: read-out: Ki(app).

Experiment [26] relates to Rattus norvegicus. Nature of the experiment: Decrease in 5-HIAA level in Sprague-Dawley rat striatum at 5.8 umol/kg, sc by HPLC analysis relative to saline-treated control. The format is functional. Set-up: scale not given: the % may be the effect or the level left.
In experiment [27] the test system is Rattus norvegicus. Nature of the experiment: Increase in DOPAC level in Sprague-Dawley rat striatum at 5.8 umol/kg, sc by HPLC analysis relative to saline-treated control. The format is functional.
The test system of experiment [28] is Rattus norvegicus. Nature of the experiment: Reduction in spontaneous locomotor activity in Sprague-Dawley rat at 5.8 umol/kg, sc measured after 15 to 60 mins relative to saline-treated control. It is filed as functional. Set-up: scale not given: the % may be the effect or the level left.

T5 sequence (P35462 whole entry): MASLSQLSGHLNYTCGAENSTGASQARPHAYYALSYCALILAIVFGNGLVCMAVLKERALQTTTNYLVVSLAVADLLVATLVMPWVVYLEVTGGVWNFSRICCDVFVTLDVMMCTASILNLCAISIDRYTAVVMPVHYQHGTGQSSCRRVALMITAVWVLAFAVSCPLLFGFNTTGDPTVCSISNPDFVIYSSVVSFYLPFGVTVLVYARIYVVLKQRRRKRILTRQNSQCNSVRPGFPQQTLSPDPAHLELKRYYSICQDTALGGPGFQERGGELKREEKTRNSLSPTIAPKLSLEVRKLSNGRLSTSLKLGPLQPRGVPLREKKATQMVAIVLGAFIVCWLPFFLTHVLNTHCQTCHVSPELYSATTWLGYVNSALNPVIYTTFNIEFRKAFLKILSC

One may read the ED50 as the dose that gives a 50% effect, or the effect in half of the subjects. The inhibition is the percentage by which the read-out fell short of the control. Regarding `CCCN1CCC(c2noc3cc(F)ccc23)CC1`, the Activity with Rattus norvegicus [1] came out at 8.3%; in the experiment on Rattus norvegicus [2], 111%; in the experiment with Rattus norvegicus [3], 350%. The compound further returned an ED50 in the experiment with Rattus norvegicus [4] of 4 µmol/kg. The Ki in experiment [5] was 2230 nM; in [6] it was 29800 nM; on D(2) dopamine receptor [7] it was 34 nM; at D(2) dopamine receptor [8] it was 194 nM. In addition, in the experiment filed under Homo sapiens, the Ratio Ki(app) is 5.7. Besides, the inhibition in [9] was 17%; in experiment [10] it was 15%; in experiment [11], 37%; on D(3) dopamine receptor [12], 83%.
Regarding `Cc1nc2n(c(=O)c1CCN1CCC(c3noc4cc(F)ccc34)CC1)CCCC2` [RISPERIDONE], the Activity in the experiment with Rattus norvegicus [13] is listed as 115%; in the experiment with Rattus norvegicus [14], 347%; in the experiment with Rattus norvegicus [15], 11%. This compound gave an ED50 in the experiment with Rattus norvegicus [4] of 0.5 µmol/kg.
For `CCCN1CCC(c2coc3ccccc23)CC1`, the Activity in the experiment on Rattus norvegicus [16] is reported as 75%; with Rattus norvegicus [17], 84%; in the experiment with Rattus norvegicus [18] it was 35%. Moreover, the Ki was determined as 92 nM in experiment [5], 827 nM in experiment [6], 803 nM at D(2) dopamine receptor [7] and 2720 nM on D(2) dopamine receptor [8]. The inhibition is 49% in experiment [9], 34% in [10], 26% in experiment [11] and 28% at D(3) dopamine receptor [12].
As usually defined, the IC50 is the concentration at which inhibition is half-maximal. Turning to `CCCN1CCC(n2c(=O)[nH]c3cc(Cl)ccc32)CC1`, the Ki in [19] worked out at 21600 nM; in experiment [20] it was 5710 nM; in experiment [6] it was 3510 nM; at D(2) dopamine receptor [7], 456 nM; at D(2) dopamine receptor [8], 371 nM; at D(3) dopamine receptor [23], 2520 nM. In addition, in experiment [25], the Ki was found to be 17200 nM. For the same compound, the Activity with Rattus norvegicus [1] came to 54%; in the experiment on Rattus norvegicus [2], 101%; with Rattus norvegicus [3], 334%. In addition, in the experiment with Rattus norvegicus [4], it took a dose of 7 µmol/kg to reach the 50% effect level (ED50). The IC50 in experiment [5] and in [24] was > 580000 nM in each case. Also, the Ratio Ki(app) in the experiment filed under Homo sapiens worked out at 0.8. Further, the results for the “inhibition (INH)” value in the experiment on Rattus norvegicus [21] and in the experiment on Rattus norvegicus [22] were 42% and 4%, respectively. Further, the inhibition in [10] was 15%; in [11], 17%.
Consider `O=c1[nH]c2ccccc2n1C1CCN(CCCC(c2ccc(F)cc2)c2ccc(F)cc2)CC1` [PIMOZIDE], for which the results for the Activity with Rattus norvegicus [26], in the experiment on Rattus norvegicus [27] and with Rattus norvegicus [28] were 101%, 416% and 7.3%, respectively. In the experiment with Rattus norvegicus [4], this compound returned an ED50 of 1.6 µmol/kg.
